Measurements from publication PMC5882139, “Functional examination of novel kisspeptin phosphinic peptides” (PLoS ONE, 2018).
Ends that are not written are not given here.

Tests used:
MMP-2 = MMP-2 activity, MMP colorimetric drug discovery kit; format: biochemical; conditions: 1.3 μM, 37°C 1 hour, 412 nm; three independent experiments
Method: (§1) The activity of MMPs was measured using MMP colorimetric drug discovery kits in a 96-well microtiter plate according to the manufacturer’s instructions. Different concentrations of the phosphinic peptides or 1.3 μM N-Isobutyl-N-(4-methoxyphenylsulfonyl)glycyl hydroxamic acid (NNGH), a positive inhibitor for MMPs, were, respectively, added to the assay mixtures containing MMP enzyme (MMP-2 or MMP-9; 9 mU/μL). The plates were then incubated at 37°C for 1 hour for enzyme reaction. After that, a final concentration of 100 μM colorimetric substrate (Ac-PLG-[2-mercapto-4-methyl-pentanoyl]-LGOC2H5) was added to each well and the plates were then read at 412 nm every minute for at least 20 minutes using PHERAStar FS microplate reader. The full enzyme activity (control) was measured without addition of any inhibitor or tested peptides. The reaction velocity (V) was determined by calculating the slope of the fitted line to the linear portion of the data collected. The slope of blank (without addition of MMP enzyme) was subtracted from all samples and the remaining activity of the enzyme was calculated using following formula.
(§2) %Enzymeactivity=V(inhibitor)/V(control)*100
(§3) Fig 7 Effect of KP phosphinic peptides on MMP-2 (A) or MMP-9 (B) enzyme activity. […] The maximum activity (control) was measured in the absence of inhibitors. […]

MMP-9 = MMP-9 activity, MMP colorimetric drug discovery kit; format: biochemical; conditions: 1.3 μM, 37°C 1 hour, 412 nm; three independent experiments
Method: as §1, §2, §3

cancer cell metastasis = conditions: ref [17]; cited from earlier work
Source text: KPs inhibit metastasis in a variety of cancers, including melanoma, breast, endometrial, gastric ovarian cancers, and others. Therefore, KP analogues may act as inhibitors of cancer metastasis which is the major cause of cancer death.

Compound	inhibition of MMP-2 activity by positive control (MMP-2)	inhibition of MMP-9 activity by positive control (MMP-9)	inhibition of cancer cell metastasis (cancer cell metastasis)
COc1ccc(S(=O)(=O)N(CC(=O)NO)CC(C)C)cc1 [NNGH, N-Isobutyl-N-(4-methoxyphenylsulfonyl)glycyl hydroxamic acid]	almost completely inhibited	almost completely inhibited	
KP-54: endogenous 54-amino acid peptide ligand of kisspeptin receptor (GTSLSPPPESSGSPQQPGLSAPHSRQIPAPQGAVLVQREKDLPNYNWNSFGLRF; ends and bridges not checked; UniProt Q15726 68-121, looked up)			inhibit cancer cell metastasis
